The values below come from ChEMBL document CHEMBL1201862, “PubChem BioAssay data set” (2004).

Some test systems named below: HCC 2998; A498; MDA-MB-435; K562; A549; RPMI-8226; MOLT-4; MDA-MB-231; MCF7; UACC-257; MDA-N; PC-3; SF-268; M14; OVCAR-5; HOP-62; IGROV-1; UACC-62; SK-MEL-28; OVCAR-3.
Test in all cases: NCI-60 cell line screen, 48 h

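Tested at 5 concentrations; 48 h exposure; 96-well plates; endpoints linearly interpolated, else capped at highest concentration. At the GI50, growth is halved.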 Active and inactive are the calls of the source. No stated cut-off is given here; in the data, active = GI50 up to about 1.1 µM and inactive = higher. Where only a bound is given, the exact number is not on record here.

Consider `CC(C)(O)CO/N=C1\C(=C2\C(=O)Nc3ccccc32)Nc2ccccc21`, for which the GI50 with HCC 2998 is 0.991 µM (active); with A498, 0.187 µM (active); with MDA-MB-435 it was 0.794 µM (active); with K562 it was 5.86 µM (inactive); in the experiment with A549, 0.724 µM (active); in the experiment on RPMI-8226, 1.97 µM (inactive). The GI50 was 0.944 µM (active) with MOLT-4; 2.01 µM (inactive) with MDA-MB-231; 1.39 µM (inactive) with MCF7; 4.49 µM (inactive) in the experiment on UACC-257; 12.2 µM (inactive) with MDA-N; 0.883 µM (active) with PC-3. Moreover, the GI50 in the experiment on SF-268 is 2.33 µM (inactive); in the experiment with M14, 0.474 µM (active); with OVCAR-5, 2.61 µM (inactive); with HOP-62, 2.1 µM (inactive); with IGROV-1 it was 0.0895 µM (active); with UACC-62, 0.728 µM (active). Moreover, the results for the GI50 in the experiment on SK-MEL-28 and in the experiment on OVCAR-3 were 2.38 µM (inactive) and 1.32 µM (inactive), respectively.
As to `CC[C@@]1(O)C(=O)OCc2c1cc1n(c2=O)Cc2c-1nc1ccccc1c2/C=N\NC(=O)C[n+]1ccccc1`, the GI50 is 8.13 µM (inactive) in the experiment on HCC 2998; 2.78 µM (inactive) with A498; 3.56 µM (inactive) with MDA-MB-435; 1.02 µM (active) in the experiment on K562; 0.513 µM (active) with A549; 1.67 µM (inactive) with RPMI-8226. Moreover, the GI50 in the experiment on MOLT-4 was 0.0552 µM (active); in the experiment on MDA-MB-231, 64.6 µM (inactive); in the experiment on MCF7, 0.0735 µM (active); in the experiment with UACC-257, 2.82 µM (inactive); in the experiment with MDA-N it was 4.02 µM (inactive); in the experiment on PC-3, 4.49 µM (inactive). Further, the GI50 with SF-268 is 0.115 µM (active); in the experiment on M14, 0.457 µM (active); with OVCAR-5, 6.18 µM (inactive); in the experiment on HOP-62 it was 0.164 µM (active); in the experiment on IGROV-1, 7.08 µM (inactive); with UACC-62, 0.0541 µM (active). Besides, the GI50 in the experiment on SK-MEL-28 is 3.29 µM (inactive); with OVCAR-3, 7.78 µM (inactive).
With `C/C(=N/NC(N)=S)c1ccc[nH]1`, the GI50 was > 100 µM (inactive) with HCC 2998; > 100 µM (inactive) in the experiment with A498; > 100 µM (inactive) in the experiment with MDA-MB-435; 37.9 µM (inactive) in the experiment on K562; > 100 µM (inactive) in the experiment on A549; > 100 µM (inactive) in the experiment with RPMI-8226. For the same molecule, the GI50 in the experiment with MOLT-4, in the experiment with MDA-MB-231, in the experiment with MCF7, in the experiment with UACC-257, in the experiment on MDA-N and in the experiment on PC-3 was > 100 µM (inactive) each time. The GI50 in the experiment on SF-268, in the experiment on M14, in the experiment on OVCAR-5, in the experiment with HOP-62, in the experiment with IGROV-1 and with UACC-62 was > 100 µM (inactive) throughout. For the same molecule, the GI50 in the experiment on SK-MEL-28 and with OVCAR-3 was > 100 µM (inactive) in each case.
For `Nc1ncc(N)c(NCC2(CO)CC(CCc3ccccc3)C2)n1` (stereo not given), the GI50 in the experiment on HCC 2998 is 11.3 µM (inactive); with A498, 13.5 µM (inactive); in the experiment on MDA-MB-435 it was 11 µM (inactive); in the experiment with K562, 2.12 µM (inactive); in the experiment on A549 it was 9.73 µM (inactive); in the experiment on RPMI-8226, 0.482 µM (active). The GI50 in the experiment on MOLT-4 is 0.393 µM (active); in the experiment with MDA-MB-231, 4.65 µM (inactive); in the experiment on MCF7 it was 3.37 µM (inactive); in the experiment on UACC-257 it was 8.85 µM (inactive); in the experiment on MDA-N, 8.28 µM (inactive); in the experiment on PC-3, 5.89 µM (inactive). In addition, the GI50 is 5.58 µM (inactive) with SF-268; 11.4 µM (inactive) in the experiment with M14; 14.7 µM (inactive) with OVCAR-5; 14.7 µM (inactive) in the experiment on HOP-62; 7.94 µM (inactive) with IGROV-1; 5.81 µM (inactive) with UACC-62. Further, the GI50 with SK-MEL-28 was 14.4 µM (inactive); with OVCAR-3, 2.26 µM (inactive).
`CN(Cc1cnc2nc(N)nc(N)c2n1)c1ccc(C(=O)NCCCC(=O)O)cc1`: the GI50 with HCC 2998 is > 100 µM (inactive); in the experiment with A498, > 100 µM (inactive); in the experiment with MDA-MB-435 it was > 25.4 µM (inactive); with K562, 1.2 µM (inactive); with A549 it was 5.83 µM (inactive); in the experiment on RPMI-8226 it was > 40 µM (inactive). Further, the GI50 was 6.53 µM (inactive) in the experiment on MOLT-4; > 100 µM (inactive) in the experiment with MDA-MB-231; 5.02 µM (inactive) in the experiment with MCF7; 98.9 µM (inactive) with UACC-257; 7.57 µM (inactive) in the experiment on MDA-N; 0.773 µM (active) in the experiment on PC-3. Further, the GI50 in the experiment on SF-268 is 29.9 µM (inactive); with M14, 7.55 µM (inactive); with OVCAR-5 it was > 100 µM (inactive); in the experiment on HOP-62, 58.6 µM (inactive); in the experiment on IGROV-1, 16.1 µM (inactive); in the experiment on UACC-62, 12.6 µM (inactive). For the same molecule, the GI50 with SK-MEL-28 was > 100 µM (inactive); in the experiment with OVCAR-3, > 93.5 µM (inactive).
With `Cc1cc2c(c(C)c1O)C(C)(C)CN2C(=O)C(C)(C)C`, the GI50 in the experiment with HCC 2998 was > 100 µM (inactive); with A498, 66.7 µM (inactive); with MDA-MB-435, 56 µM (inactive); in the experiment with K562 it was 41.5 µM (inactive); in the experiment with A549 it was > 100 µM (inactive); with RPMI-8226, > 100 µM (inactive). In addition, the GI50 was 59.4 µM (inactive) in the experiment on MOLT-4; 86.9 µM (inactive) in the experiment on MDA-MB-231; > 100 µM (inactive) in the experiment on MCF7; > 100 µM (inactive) in the experiment with UACC-257; > 100 µM (inactive) with MDA-N; 46.3 µM (inactive) in the experiment on PC-3. Moreover, the GI50 with SF-268 is > 100 µM (inactive); with M14, 80.7 µM (inactive); in the experiment with OVCAR-5, > 100 µM (inactive); in the experiment with HOP-62 it was > 100 µM (inactive); with IGROV-1, > 100 µM (inactive); in the experiment with UACC-62, > 100 µM (inactive). The GI50 was > 100 µM (inactive) in the experiment with SK-MEL-28 and 14.4 µM (inactive) in the experiment with OVCAR-3.
